Reference: ChEMBL document CHEMBL1135798, “Structure-activity relationships of the antimalarial agent artemisinin. 6. The development of predictive in vitro potency models using CoMFA and HQSAR methodologies” (2002)

Test system: Plasmodium falciparum
Assay: Antimalarial activity against chloroquine-resistant, mefloquine-sensitive Plasmodium falciparum W2
Format: functional

How did the “Log RA” value turn out when `CCC1(CC)OO[C@]23CCCCC2[C@@H](C)C(=O)OC3O1` (some centres not stated) was run?
The value was -0.6.

With `CO[C@@H]1O[C@@]2(C)CC[C@H]3CC(C)(C)CC[C@]31OO2` as the compound, how does the “Log RA” value read?
The value was -0.47.

How did the “Log RA” value turn out when `CCCC[C@H]1CO[C@@H]2O[C@@]3(C)CC[C@H]4[C@H](C)CC[C@@H]1[C@@]24OO3` was run?
The value was 1.32.

With `C[C@H]1[C@@H](O)O[C@@H]2O[C@@]3(C)CC[C@H]4[C@H](C)CC[C@@H]1[C@@]24OO3` [ARTENIMOL] as the compound, how does the “Log RA” value read?
Its value is 0.55.

For `C[C@@H]1CC[C@H]2CC(=O)O[C@@H]3O[C@H]4CC[C@@H]1[C@@]23OO4`, which “Log RA” value is on record?
Its value is -2.76.

Which “Log RA” value does the source give for `CO[C@H]1OC2(C)CC[C@H]3CCC[C@@H](CCOCc4ccc(F)cc4)C31OO2` (some centres not stated) here?
Its value is 0.38.

With `C[C@H]1[C@@H](O[C@H](C)c2ccc(C(=O)O)cc2)O[C@@H]2O[C@@]3(C)CC[C@H]4[C@H](C)CC[C@@H]1[C@@]24OO3` as the compound, how does the “Log RA” value read?
The value was 0.12.

Which “Log RA” value does the source give for `CC[C@H]1C(=O)O[C@@H]2O[C@@]3(C)CC[C@H]4[C@H](C)CC[C@@H]1[C@@]24OO3` here?
Its value is 1.4.

How did the “Log RA” value turn out when `CCC[C@H]1C(=O)O[C@@H]2O[C@@]3(C)CC[C@H]4[C@H](C)CC[C@@H]1[C@@]24O3` was run?
The value was -4.

With `C[C@@H]1CC[C@H]2[C@@H](CCCc3ccccc3)CO[C@@H]3O[C@@]4(C)CC[C@@H]1[C@]32OO4` as the compound, how does the “Log RA” value read?
The value was 1.4.

With `c1ccc([C@@]23CCC[C@](c4ccccc4)(CC2)OO3)cc1` as the compound, how does the “Log RA” value read?
The value was -0.91.

For `C[C@@H]1CC[C@H]2CC(=O)O[C@@H]3O[C@@]4(CCc5ccccc5)CC[C@@H]1[C@@]23OO4`, which “Log RA” value is on record?
Its value is -2.

For `C[C@@H]1CC[C@H]2[C@@H](C)C(=O)N(C)[C@@H]3O[C@@]4(C)CC[C@@H]1[C@@]23OO4`, which “Log RA” value is on record?
Its value is 0.43.

How did the “Log RA” value turn out when `CCOC(=O)C[C@H](O[C@H]1O[C@@H]2O[C@@]3(C)CC[C@H]4[C@H](C)CC[C@@H]([C@H]1C)[C@@]24OO3)c1ccccc1` was run?
Its value is 0.9.

How did the “Log RA” value turn out when `C[C@@H]1CC[C@H]2[C@](C)(O)[C@H](O)O[C@@H]3O[C@@]4(C)CC[C@@H]1[C@]32OO4` was run?
Its value is -0.89.

`C[C@@H]1CC[C@@H]2[C@]34OO[C@](C)(CC[C@@H]13)O[C@H]4OC(O)[C@@]21CO1` (some centres not stated) was tested. Which “Log RA” value did it give?
Its value is -0.62.

With `C[C@@H]1CC[C@H]2CC(=O)O[C@@H]3O[C@@]4(CCCCc5ccccc5)CC[C@@H]1[C@@]23OO4` as the compound, how does the “Log RA” value read?
The value was 0.45.
